ChEMBL document CHEMBL1201862, “PubChem BioAssay data set” (2004)
Where “and” joins values, the source holds several entries; their conditions need not be identical. Identical values can stand only once.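 The compound was tested at five concentrations on cells cultured in 96-well plates, with a 48-hour exposure period. The concentration for 50% growth inhibition is given as GI50.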 Calls of active or inactive are those of the source. No stated cut-off is given here; in the data, active = GI50 up to about 1.1 µM and inactive = higher.

Columns and labels:
Assay in all cases: NCI anticancer screen, dose series, 48 h
SR = tested on: SR
CAKI-1 = tested on: CAKI-1
MOLT-4 = tested on: MOLT-4
NCI-H226 = tested on: NCI-H226
MDA-MB-231 = tested on: MDA-MB-231
SF-268 = tested on: SF-268
TK-10 = tested on: TK-10
SK-MEL-5 = tested on: SK-MEL-5
U-251 = tested on: U-251
OVCAR-5 = tested on: OVCAR-5
SK-OV-3 = tested on: SK-OV-3
NCI-H23 = tested on: NCI-H23
MCF7 = tested on: MCF7
IGROV-1 = tested on: IGROV-1
SF-295 = tested on: SF-295
HOP-92 = tested on: HOP-92
SF-539 = tested on: SF-539
HCT-116 = tested on: HCT-116
Hs-578T = tested on: Hs-578T
RXF 393 = tested on: RXF 393

Row | Compound | GI50 (SR) | GI50 (CAKI-1) | GI50 (MOLT-4) | GI50 (NCI-H226) | GI50 (MDA-MB-231) | GI50 (SF-268) | GI50 (TK-10) | GI50 (SK-MEL-5) | GI50 (U-251) | GI50 (OVCAR-5) | GI50 (SK-OV-3) | GI50 (NCI-H23) | GI50 (MCF7) | GI50 (IGROV-1) | GI50 (SF-295) | GI50 (HOP-92) | GI50 (SF-539) | GI50 (HCT-116) | GI50 (Hs-578T) | GI50 (RXF 393)
1 | O=[N+]([O-])c1cccc([N+](=O)[O-])c1S(=O)(=O)c1ccccc1 | 1.63 µM (inactive) | 2.04 µM (inactive) | 3.38 µM (inactive) | 12.2 µM (inactive) | 18.2 µM (inactive) | 12.2 µM (inactive) | 16 µM (inactive) | 14.1 µM (inactive) | 8.95 µM (inactive) | 3.66 µM (inactive) | 16.8 µM (inactive) | 21.3 µM (inactive) | 5.87 µM (inactive) | 1.89 µM (inactive) | 16.4 µM (inactive) | 3.76 µM (inactive) | 15.8 µM (inactive) | 1.89 µM (inactive) | 20.8 µM (inactive) | 
2 | COC(=O)CCCCC/C(=C\C(=O)C(Cl)(Cl)Cl)OC | 18.1 µM (inactive) | 30.8 µM (inactive) | 16.7 µM (inactive) |  | 80 µM (inactive) | 24.4 µM (inactive) | 29.4 µM (inactive) | 38.8 µM (inactive) | 26.4 µM (inactive) | > 100 µM (inactive) | 61.4 µM (inactive) | 31.8 µM (inactive) | 23.3 µM (inactive) | 12.7 µM (inactive) | 43.3 µM (inactive) | 26.1 µM (inactive) | 18.6 µM (inactive) | 20.2 µM (inactive) | 26.4 µM (inactive) | 16.7 µM (inactive)
3 | NC1=NC(=O)/C(=C2\CCNC(=O)c3[nH]c(Br)cc32)N1 [HYMENIALDISINE] | 0.303 µM (active) |  | 4.28 µM (inactive) and 3.45 µM (inactive) |  | 4.66 µM (inactive) | 8.93 µM (inactive) and 5.09 µM (inactive) | 9.12 µM (inactive) |  | 26.4 µM (inactive) and 18.6 µM (inactive) | > 52.1 µM (inactive) and > 57.5 µM (inactive) |  | 80.9 µM (inactive) and 52.7 µM (inactive) | 40.9 µM (inactive) and 80.7 µM (inactive) |  | > 100 µM (inactive) | 29.2 µM (inactive) and 40.8 µM (inactive) |  | 7.16 µM (inactive) and 5.57 µM (inactive) | 38.6 µM (inactive) | 29.7 µM (inactive) and 34.6 µM (inactive)
4 | COc1ccc(Cn2c(=O)c(OC)c(C)c3cc4ccccc4cc32)cc1 | 21.3 µM (inactive) | 37.3 µM (inactive) | 11.8 µM (inactive) | 45.7 µM (inactive) | 22.7 µM (inactive) | 39 µM (inactive) | 25.7 µM (inactive) | 6.21 µM (inactive) | 23 µM (inactive) | 54.5 µM (inactive) | 42.3 µM (inactive) | 22.3 µM (inactive) | 33.7 µM (inactive) | 21.4 µM (inactive) | 32.3 µM (inactive) |  | 32.7 µM (inactive) | 18.6 µM (inactive) | 40.9 µM (inactive) | 34.4 µM (inactive)
5 | Oc1ccc(-c2nc3ccccc3s2)cc1 | 32.7 µM (inactive) | 29.2 µM (inactive) | 25.8 µM (inactive) | 43.3 µM (inactive) | 29.2 µM (inactive) | 31.5 µM (inactive) |  |  | 42.4 µM (inactive) | 49.8 µM (inactive) | 32.1 µM (inactive) | 25.2 µM (inactive) | 33.6 µM (inactive) | 25.7 µM (inactive) | 37.5 µM (inactive) | 35.9 µM (inactive) | 47.8 µM (inactive) | 22.4 µM (inactive) | 37.7 µM (inactive) | 24 µM (inactive)
6 | CCOC(=O)c1cc(C2=CCNC2=O)c(-c2cc(C)no2)[nH]1 | 33.2 µM (inactive) | > 100 µM (inactive) | 25.1 µM (inactive) | > 100 µM (inactive) | 36.4 µM (inactive) | > 100 µM (inactive) | > 100 µM (inactive) | 66.7 µM (inactive) | 62.5 µM (inactive) | > 100 µM (inactive) | 31.3 µM (inactive) | > 100 µM (inactive) | 70 µM (inactive) | 75.3 µM (inactive) | 29.8 µM (inactive) |  | > 100 µM (inactive) | 31.1 µM (inactive) | 95.5 µM (inactive) | 49.2 µM (inactive)
7 | Cc1ccc2c(c1)CC1(Cc3cccc(C)c3C1=O)C2=O (stereo not drawn) | 79.8 µM (inactive) |  | 42.6 µM (inactive) | > 100 µM (inactive) | 19.4 µM (inactive) | > 100 µM (inactive) | > 100 µM (inactive) | 32.3 µM (inactive) | > 100 µM (inactive) | 37.3 µM (inactive) | 88.5 µM (inactive) | > 100 µM (inactive) | > 10 µM (inactive) | > 100 µM (inactive) | > 100 µM (inactive) | 50.7 µM (inactive) | > 100 µM (inactive) | 64 µM (inactive) | 96.8 µM (inactive) | > 100 µM (inactive)
8 | CSC1=C(C(=O)Nc2ccc(C)cc2)C(N)=NC1=O | 81.5 µM (inactive) | > 100 µM (inactive) | > 100 µM (inactive) | > 100 µM (inactive) | > 100 µM (inactive) | > 100 µM (inactive) | > 100 µM (inactive) | > 100 µM (inactive) | > 100 µM (inactive) |  | > 100 µM (inactive) | > 100 µM (inactive) | > 100 µM (inactive) | > 100 µM (inactive) | > 100 µM (inactive) | > 100 µM (inactive) | > 100 µM (inactive) | > 100 µM (inactive) | > 100 µM (inactive) | > 100 µM (inactive)
9 | CC(C)(CO)CNc1nc(N)nc(Cl)c1C=O | 17.5 µM (inactive) | 11.9 µM (inactive) | 19.8 µM (inactive) | 50.8 µM (inactive) | 30.1 µM (inactive) | 14 µM (inactive) | 46.9 µM (inactive) | 30.7 µM (inactive) | 32.8 µM (inactive) | > 100 µM (inactive) |  | 40.4 µM (inactive) | 50.4 µM (inactive) | 20.1 µM (inactive) | 42.4 µM (inactive) | 26.2 µM (inactive) | 54.2 µM (inactive) | 20 µM (inactive) | 22.9 µM (inactive) | 17.6 µM (inactive)
10 | C=CCSC1=N/C(=C\c2ccc(C)cc2)C(=O)N1CC=C | 11.5 µM (inactive) | 80 µM (inactive) |  |  | 90.4 µM (inactive) | 36.6 µM (inactive) | 44.3 µM (inactive) | 14.3 µM (inactive) | 22.7 µM (inactive) | 25.4 µM (inactive) | 63.4 µM (inactive) | 32.7 µM (inactive) | 20.9 µM (inactive) | 44.2 µM (inactive) | 43.5 µM (inactive) | 11.7 µM (inactive) | 25.8 µM (inactive) | 18.4 µM (inactive) | 54.8 µM (inactive) | 15.3 µM (inactive)
11 | C1=N/CCNCCNCC/N=C/c2ccccc2OCc2cccc(n2)COc2ccccc2/1 | 19.5 µM (inactive) | > 100 µM (inactive) | 27.4 µM (inactive) | 66.8 µM (inactive) | 57.9 µM (inactive) | 47.2 µM (inactive) |  | 39.1 µM (inactive) | 26.7 µM (inactive) | > 100 µM (inactive) | > 100 µM (inactive) | 86.3 µM (inactive) | 21.2 µM (inactive) | 52.6 µM (inactive) | 26.4 µM (inactive) | 71.4 µM (inactive) | 26.1 µM (inactive) | 61 µM (inactive) | 55.3 µM (inactive) | 30.3 µM (inactive)
12 | OC[C@]1(n2nc3ccccc3n2)OC[C@@H]1c1ccccc1 | 32.2 µM (inactive) | 27.2 µM (inactive) | 33.7 µM (inactive) | 32.2 µM (inactive) | 74.3 µM (inactive) | 30.8 µM (inactive) | 60.4 µM (inactive) | 83.2 µM (inactive) | 48.4 µM (inactive) | 91.4 µM (inactive) | > 100 µM (inactive) | 48.2 µM (inactive) | 33.7 µM (inactive) | 37.2 µM (inactive) | 83.4 µM (inactive) | 44.6 µM (inactive) | 25.2 µM (inactive) | 30.4 µM (inactive) | 56 µM (inactive) | 
13 | c1ccc2c(c1)ncn2C1CCCCO1 (stereo not drawn) | > 100 µM (inactive) |  | > 100 µM (inactive) | > 100 µM (inactive) | > 100 µM (inactive) | > 100 µM (inactive) | > 100 µM (inactive) | > 100 µM (inactive) | > 100 µM (inactive) | > 100 µM (inactive) | > 100 µM (inactive) | > 100 µM (inactive) | > 100 µM (inactive) | > 100 µM (inactive) | > 100 µM (inactive) | > 100 µM (inactive) | > 100 µM (inactive) | > 100 µM (inactive) | > 100 µM (inactive) | > 100 µM (inactive)
14 | Cc1cc(C)n(CN(Cn2nc(C)cc2C)c2ccc(N(Cn3nc(C)cc3C)Cn3nc(C)cc3C)cc2)n1 | 30.9 µM (inactive) | 26.1 µM (inactive) | 28 µM (inactive) |  | 45.7 µM (inactive) | 24.8 µM (inactive) | 29.9 µM (inactive) | 16.5 µM (inactive) | 27.9 µM (inactive) | 24.7 µM (inactive) | 25.9 µM (inactive) | 21.2 µM (inactive) | 20.3 µM (inactive) | 31.6 µM (inactive) | 30.8 µM (inactive) | 23.9 µM (inactive) | 18.1 µM (inactive) | 17.5 µM (inactive) | 18.2 µM (inactive) | 20 µM (inactive)
15 | C/C(=N/NC(=S)N1CCCCCC1)c1cccc(/C(C)=N\NC(=S)N2CCCCCC2)n1 | 2.38 µM (inactive) |  | 2.43 µM (inactive) | 1.75 µM (inactive) | 1.7 µM (inactive) | 2.51 µM (inactive) | 1.77 µM (inactive) | 1.42 µM (inactive) | 2.32 µM (inactive) | 2.24 µM (inactive) | 2.43 µM (inactive) | 2.31 µM (inactive) | 1.57 µM (inactive) | 1.49 µM (inactive) | 1.89 µM (inactive) | 1.7 µM (inactive) | 1.56 µM (inactive) | 1.66 µM (inactive) | 5.2 µM (inactive) | 1.6 µM (inactive)
